Measured values published in publication PMC6941756 (Biochemistry, 2019).

Molecular target: HIV-1 protease KY variant (Human immunodeficiency virus 1, UniProt P12497, L577V/L578M/Q495K, form not given)

CC(C)CN(C[C@@H](O)[C@H](Cc1ccccc1)NC(=O)O[C@H]1CO[C@H]2OCC[C@H]21)S(=O)(=O)c1ccc(N)cc1 [DRV, darunavir]
times more tightly bound than expected under additivity of binding free energies (KY variant protease): about 3.5 times
increase in Ki compared with the NL4–3 WT protease (all of the KY variants vs NL4–3 WT): ≥ 500 fold
